# Assay results from patent US10543212B2, “Substituted amines for treating cardiac diseases” (Cardurion Pharmaceuticals, LLC, priority 2017, dated 2020).
# Target: T1, Full-length, GST-tagged, human CaMKIIδ (Homo sapiens, UniProt Q13557)
# T1 construct: Full-Length, Glutathione-S-Transferase(GST)-Tagged, Human CaMKIIδ was purchased from Carna Biosciences; purchased Carna Biosciences 02-111
# Assay: CaMKIIδ binding assay (TR-FRET with BODIPY-labeled probe ligand)
# Conditions: CaMKIIδ binding assay, results of Table 2
# Summary of the method: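 Compounds were tested as 4-fold, eight-point series for 1 hr at room temperature, and IC50 was obtained by logistic fitting against a 3 μM parent-compound control. Signal came from displacement of a 300 nM BODIPY ligand from 0.5 nM GST-CaMKIIδ, detected via Tb-anti-GST in calmodulin/Ca2+ (pH 7.6).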
# T1 sequence (Q13557 1-478 isoform Q13557-12): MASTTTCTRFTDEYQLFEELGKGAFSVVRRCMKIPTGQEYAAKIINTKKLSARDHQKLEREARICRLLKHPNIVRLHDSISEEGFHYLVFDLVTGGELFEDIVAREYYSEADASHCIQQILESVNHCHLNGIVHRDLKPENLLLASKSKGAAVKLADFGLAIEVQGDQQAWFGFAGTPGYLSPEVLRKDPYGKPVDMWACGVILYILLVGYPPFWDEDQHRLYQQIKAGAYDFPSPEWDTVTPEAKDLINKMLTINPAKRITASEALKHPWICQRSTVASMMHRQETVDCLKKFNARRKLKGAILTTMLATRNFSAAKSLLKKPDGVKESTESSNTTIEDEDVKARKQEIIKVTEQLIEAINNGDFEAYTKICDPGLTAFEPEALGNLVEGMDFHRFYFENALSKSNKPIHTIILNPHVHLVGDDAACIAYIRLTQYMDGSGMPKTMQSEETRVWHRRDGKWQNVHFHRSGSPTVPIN
row,Compound,IC50 [nM]
1,"COc1cc2c(cc1Nc1ncc(-c3ccc(Cl)c(O[C@@H](C)Cn4cnnn4)c3)cn1)CN(CC(C)=O)CC2 [Example 510, (S)-1-(7-((5-(3-((1-(1H-tetrazol-1-yl)propan-2-yl)oxy)-4-chlorophenyl)pyrimidin-2-yl)amino)-6-methoxy-3,4-dihydroisoquinolin-2(1H)-yl)propan-2-one]",< 10
2,"COc1cc(N2CCC(N3CCOCC3)CC2)ccc1Nc1ncc(-c2cc(O[C@@H](C)Cn3cnnn3)c(Cl)cn2)cn1 [Example 534, (S)-5-(4-((1-(1H-tetrazol-1-yl)propan-2-yl)oxy)-5-chloropyridin-2-yl)-N-(2-methoxy-4-(4-morpholinopiperidin-1-yl)phenyl)pyrimidin-2-amine]",≥ 100
3,"COc1cc2c(cc1Nc1ncc(-c3ccc(Cl)c(O[C@@H](C)Cn4cnnn4)c3)cn1)C(=O)N(CCN(C)C)C2 [Example 512, (S)-6-((5-(3-((1-(1H-tetrazol-1-yl)propan-2-yl)oxy)-4-chlorophenyl)pyrimidin-2-yl)amino)-2-(2-(dimethylamino)ethyl)-5-methoxyisoindolin-1-one]",10 to 100
4,"COC1CCC(N2CCC(n3cc(Nc4ncc(-c5ccc(Cl)c(OC(C)Cn6cnnn6)c5)cn4)c(C(F)(F)F)n3)CC2)CC1 (single isomer, unassigned; more polar) [Example 556, (S)-5-(3-((1-(1H-tetrazol-1-yl)propan-2-yl)oxy)-4-chlorophenyl)-N-(1-(1-(cis or trans-4-methoxycyclohexyl)piperidin-4-yl)-3-(trifluoromethyl)-1H-pyrazol-4-yl)pyrimidin-2-amine, more polar]",< 10
5,"COc1ccc(N2CCN(CC(N)=O)CC2)cc1Nc1ncc(-c2ccc(Cl)c(O[C@@H](C)Cn3cnnn3)c2)cn1 [Example 579, (S)-2-(4-(3-((5-(3-((1-(1H-tetrazol-1-yl)propan-2-yl)oxy)-4-chlorophenyl)pyrimidin-2-yl)amino)-4-methoxyphenyl)piperazin-1-yl)acetamide]",< 10
6,"COc1cc2c(cc1Nc1ncc(-c3ccc(Cl)c(O[C@@H](C)Cn4cnnn4)c3)cn1)CN(C(=O)C(F)(F)F)CC2 [Example 460, (S)-1-(7-((5-(3-((1-(1H-tetrazol-1-yl)propan-2-yl)oxy)-4-chlorophenyl)pyrimidin-2-yl)amino)-6-methoxy-3,4-dihydroisoquinolin-2(1H)-yl)-2,2,2-trifluoroethan-1-one]",≥ 100

# Same assay, conditions: CaMKIIδ binding assay; activity class per Table 2
row,Compound,IC50 [nM]
1,"COc1ccc(-n2cc(Nc3ncc(-c4ccc(Cl)c(O[C@@H](C)Cn5cnnn5)c4)cn3)c(OCC(F)(F)F)n2)cn1 [Example 901, (S)-5-(3-((1-(1H-tetrazol-1-yl)propan-2-yl)oxy)-4-chlorophenyl)-N-(1-(6-methoxypyridin-3-yl)-3-(2,2,2-trifluoroethoxy)-1H-pyrazol-4-yl)pyrimidin-2-amine]",10 to 100
2,"C[C@@H](Cn1cnnn1)Oc1cc(-c2cnc(Nc3cn(C4CC5(C4)CN(C4CCC4)C5)nc3C(F)(F)F)nc2)ccc1Cl [Example 921, (S)-5-(3-((1-(1H-tetrazol-1-yl)propan-2-yl)oxy)-4-chlorophenyl)-N-(1-(2-cyclobutyl-2-azaspiro[3.3]heptan-6-yl)-3-(trifluoromethyl)-1H-pyrazol-4-yl)pyrimidin-2-amine]",< 10

# Same assay, conditions: Table 2; CaMKIIδ binding assay, activity given as class A/B/C
row,Compound,IC50 [nM]
1,"C[C@@H](Cn1cnnn1)Oc1cc(-c2cnc(Nc3cn(CC(C)(C)N)nc3C(F)(F)F)nc2)ccc1Cl [Example 861, (S)-5-(3-((1-(1H-tetrazol-1-yl)propan-2-yl)oxy)-4-chlorophenyl)-N-(1-(2-amino-2-methylpropyl)-3-(trifluoromethyl)-1H-pyrazol-4-yl)pyrimidin-2-amine]",< 10
2,"C[C@@H](Cn1cccn1)Oc1cc(-c2cnc(Nc3cn(C4CCN(C5CCOCC5)CC4)nc3OCC(F)(F)F)nc2)ccc1C#N [Example 782, (S)-2-((1-(1H-pyrazol-1-yl)propan-2-yl)oxy)-4-(2-((1-(1-(tetrahydro-2H-pyran-4-yl)piperidin-4-yl)-3-(2,2,2-trifluoroethoxy)-1H-pyrazol-4-yl)amino)pyrimidin-5-yl)benzonitrile]",< 10
3,"COC[C@@H](C)n1cc(Nc2ncc(-c3ccc(Cl)c(O[C@@H](C)Cn4cnnn4)c3)cn2)c(OCC(F)(F)F)n1 [Example 796, 5-(3-(((S)-1-(1H-tetrazol-1-yl)propan-2-yl)oxy)-4-chlorophenyl)-N-(1-((R)-1-methoxypropan-2-yl)-3-(2,2,2-trifluoroethoxy)-1H-pyrazol-4-yl)pyrimidin-2-amine]",< 10
4,"C[C@@H](Cn1cnnn1)Oc1cc(-c2cnc(Nc3cn(CC(F)F)nc3OCC(F)(F)F)nc2)ccc1C#N [Example 767, (S)-2-((1-(1H-tetrazol-1-yl)propan-2-yl)oxy)-4-(2-((1-(2,2-difluoroethyl)-3-(2,2,2-trifluoroethoxy)-1H-pyrazol-4-yl)amino)pyrimidin-5-yl)benzonitrile]",< 10
5,"C[C@@H](Cn1cnnn1)Oc1cc(-c2cnc(Nc3cn([C@H]4CC[C@H](N5CCOCC5)CC4)nc3OC3COC3)nc2)ccc1Cl [Example 821, 5-(3-(((S)-1-(1H-tetrazol-1-yl)propan-2-yl)oxy)-4-chlorophenyl)-N-(1-(trans-4-morpholinocyclohexyl)-3-(oxetan-3-yloxy)-1H-pyrazol-4-yl)pyrimidin-2-amine]",< 10
6,"CC(O)Cn1cc(Nc2ncc(-c3ccc(Cl)c(O[C@@H](C)Cn4cnnn4)c3)cn2)c(OCC(F)(F)F)n1 (stereo partly drawn) [Example 799, 1-(4-((5-(3-(((S)-1-(1H-tetrazol-1-yl)propan-2-yl)oxy)-4-chlorophenyl)pyrimidin-2-yl)amino)-3-(2,2,2-trifluoroethoxy)-1H-pyrazol-1-yl)propan-2-ol]",< 10
7,"COc1ccc(-n2cc(Nc3ncc(-c4ccc(Cl)c(O[C@@H](C)Cn5cnnn5)c4)cn3)c(C(F)(F)F)n2)cn1 [Example 867, (S)-5-(3-((1-(1H-tetrazol-1-yl)propan-2-yl)oxy)-4-chlorophenyl)-N-(1-(6-methoxypyridin-3-yl)-3-(trifluoromethyl)-1H-pyrazol-4-yl)pyrimidin-2-amine]",≥ 100
8,"C[C@@H](Cn1cnnn1)Oc1cc(-c2cnc(Nc3cn(CC(F)F)nc3OCC(F)(F)F)nc2)ccc1Cl [Example 760, (S)-5-(3-((1-(1H-tetrazol-1-yl)propan-2-yl)oxy)-4-chlorophenyl)-N-(1-(2,2-difluoroethyl)-3-(2,2,2-trifluoroethoxy)-1H-pyrazol-4-yl)pyrimidin-2-amine]",< 10

# Same assay, conditions: Table 2; activity class for CaMKIIδ
row,Compound,IC50 [nM]
1,"Cc1cc(Nc2ncc(-c3ccc(Cl)c(O[C@@H](C)Cn4cnnn4)c3)cn2)n(-c2ccccn2)n1 [Example 660, (S)-5-(3-((1-(1H-tetrazol-1-yl)propan-2-yl)oxy)-4-chlorophenyl)-N-(3-methyl-1-(pyridin-2-yl)-1H-pyrazol-5-yl)pyrimidin-2-amine]",≥ 100
2,"C[C@@H](CO)Cn1cc(Nc2ncc(-c3ccc(Cl)c(O[C@@H](C)Cn4cnnn4)c3)cn2)c(C(F)(F)F)n1 [Example 730, (R)-3-(4-((5-(3-(((S)-1-(1H-tetrazol-1-yl)propan-2-yl)oxy)-4-chlorophenyl)pyrimidin-2-yl)amino)-3-(trifluoromethyl)-1H-pyrazol-1-yl)-2-methylpropan-1-ol]",10 to 100
